# Laboratory results as given in patent publication US7037656B2, “Methods and compositions for identifying ligands for nuclear receptors” (priority 2000, dated 2006).
# How the values were obtained:
# Assay in all cases: Yeast 6x EcRE-lacZ β-galactosidase transactivation assay
# Dm ΔN EcR + RXRγ + GRIP1 = target: T1, Dm ΔN EcR + RXRγ + GRIP1 (Drosophila melanogaster, UniProt P34021); assay type: cell-based, Drosophila melanogaster; mouse; settings: RH 5992 10 μM, 4 hours, DMSO control 0.364
# T1 construct: ubiquitin (human, 76 aa) (N, cleaved yes); expressed in transfected cells
# T1 sequence (P34021 221-878 limits assumed, stated change not applied): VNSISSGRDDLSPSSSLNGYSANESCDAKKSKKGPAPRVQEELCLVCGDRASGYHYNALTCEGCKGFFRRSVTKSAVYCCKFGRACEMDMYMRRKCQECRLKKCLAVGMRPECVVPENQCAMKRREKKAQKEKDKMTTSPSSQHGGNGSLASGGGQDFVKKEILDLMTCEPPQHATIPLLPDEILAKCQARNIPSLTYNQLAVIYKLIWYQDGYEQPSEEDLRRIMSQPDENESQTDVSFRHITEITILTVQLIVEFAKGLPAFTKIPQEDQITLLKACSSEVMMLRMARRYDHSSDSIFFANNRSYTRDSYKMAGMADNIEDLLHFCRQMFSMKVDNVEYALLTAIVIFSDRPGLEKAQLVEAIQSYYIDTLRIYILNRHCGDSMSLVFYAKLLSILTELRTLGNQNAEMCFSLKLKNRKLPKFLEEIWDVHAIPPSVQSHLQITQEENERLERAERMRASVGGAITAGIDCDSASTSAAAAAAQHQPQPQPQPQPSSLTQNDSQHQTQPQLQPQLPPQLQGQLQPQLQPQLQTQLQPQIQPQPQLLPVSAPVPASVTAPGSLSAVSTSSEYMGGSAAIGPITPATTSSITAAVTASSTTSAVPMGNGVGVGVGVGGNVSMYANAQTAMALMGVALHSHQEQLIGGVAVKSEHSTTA
# T1 sequence (P28705 whole entry partner): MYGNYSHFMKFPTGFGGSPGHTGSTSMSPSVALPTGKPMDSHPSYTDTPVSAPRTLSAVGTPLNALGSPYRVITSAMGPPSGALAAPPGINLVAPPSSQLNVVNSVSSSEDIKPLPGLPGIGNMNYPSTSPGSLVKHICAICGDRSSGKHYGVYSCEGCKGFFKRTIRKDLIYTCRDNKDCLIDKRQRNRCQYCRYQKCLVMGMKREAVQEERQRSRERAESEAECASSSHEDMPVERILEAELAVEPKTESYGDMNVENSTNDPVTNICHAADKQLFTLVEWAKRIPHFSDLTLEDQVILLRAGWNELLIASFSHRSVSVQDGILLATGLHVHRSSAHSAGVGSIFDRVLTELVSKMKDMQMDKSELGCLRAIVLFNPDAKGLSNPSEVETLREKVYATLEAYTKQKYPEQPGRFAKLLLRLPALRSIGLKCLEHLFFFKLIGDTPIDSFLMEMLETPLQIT
# T1 sequence (Q61026 322-1121 partner limits assumed): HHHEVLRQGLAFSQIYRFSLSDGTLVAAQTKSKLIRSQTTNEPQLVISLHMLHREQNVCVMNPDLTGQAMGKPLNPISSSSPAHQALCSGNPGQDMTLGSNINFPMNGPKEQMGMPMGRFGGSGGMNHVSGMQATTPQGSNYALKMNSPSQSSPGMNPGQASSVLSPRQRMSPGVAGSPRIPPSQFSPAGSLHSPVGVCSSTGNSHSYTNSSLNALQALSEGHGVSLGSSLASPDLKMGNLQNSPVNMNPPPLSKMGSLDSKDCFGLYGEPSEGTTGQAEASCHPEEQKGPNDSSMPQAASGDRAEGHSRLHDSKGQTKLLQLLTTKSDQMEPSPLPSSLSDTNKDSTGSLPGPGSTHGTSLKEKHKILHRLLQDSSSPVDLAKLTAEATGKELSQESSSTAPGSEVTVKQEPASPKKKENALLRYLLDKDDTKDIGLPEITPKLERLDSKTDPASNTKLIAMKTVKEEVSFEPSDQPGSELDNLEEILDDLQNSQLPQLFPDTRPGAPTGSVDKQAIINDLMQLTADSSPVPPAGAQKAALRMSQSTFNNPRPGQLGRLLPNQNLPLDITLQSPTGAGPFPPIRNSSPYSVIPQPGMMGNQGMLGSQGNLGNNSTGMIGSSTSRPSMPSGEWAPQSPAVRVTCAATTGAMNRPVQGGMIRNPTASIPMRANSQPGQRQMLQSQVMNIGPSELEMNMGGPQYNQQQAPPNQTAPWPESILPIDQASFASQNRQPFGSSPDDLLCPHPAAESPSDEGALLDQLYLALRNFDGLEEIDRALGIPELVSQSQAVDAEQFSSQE
# Description: The human RXR α (Genbank accession number X52773), mouse RXR β (Genbank accession number X66224) or mouse RXR γ (Genebank accession number X66225) subtypes were expressed in yeast-E. coli multicopy 2μ expression plasmids under regulation of CUP1 promoter with the LEU2 selective marker (1).
# Briefly, yeast cells are cultured in 5 mL of YPD liquid medium overnight at 30° C. The cell culture was diluted 1:20 in YPD media and further grown until cell density reached an O.D of 0.6. at OD600. The cells were pelleted by centrifugation and washed with 10 mL of TE+0.1M lithium acetate. Cells are then resuspended in 10 mL TE+0.1M lithium acetate and incubated at 30° C. for 1 hour. Cells are collected and resuspended in 0.5 mL of TE+ 0.1M lithium acetate. […]
# Using the transformation method set forth above, yeast were co-transformed with a reporter gene as shown in FIG. 2 and the expression vector encoding the full-length D. melanogaster ecdysone receptor, DmEcR (FIG. 3A) in the presence or absence of the Dm EcR heterodimer partner, DmUSP (FIG. 4A). […] As the N-terminal portion of the Dm EcR receptor is reported to play a role in ligand independent transactivation, an expression vector containing an N-terminal deletion in the EcR was constructed (see FIG. 3B) and assessed in the β-galactosidase assays described above. […]
# Aa EcR = target: T2, Aa EcR (Aedes aegypti, UniProt P49880, DEL155-194); assay type: cell-based; settings: RH 5992 10 μM, 4 hours, DMSO control 2.500
# T2 construct: ubiquitin (human, 76 aa) (N, cleaved yes); expressed in transfected cells
# T2 sequence (P49880 other isoform, or with tags, fused parts or gaps DEL155-194): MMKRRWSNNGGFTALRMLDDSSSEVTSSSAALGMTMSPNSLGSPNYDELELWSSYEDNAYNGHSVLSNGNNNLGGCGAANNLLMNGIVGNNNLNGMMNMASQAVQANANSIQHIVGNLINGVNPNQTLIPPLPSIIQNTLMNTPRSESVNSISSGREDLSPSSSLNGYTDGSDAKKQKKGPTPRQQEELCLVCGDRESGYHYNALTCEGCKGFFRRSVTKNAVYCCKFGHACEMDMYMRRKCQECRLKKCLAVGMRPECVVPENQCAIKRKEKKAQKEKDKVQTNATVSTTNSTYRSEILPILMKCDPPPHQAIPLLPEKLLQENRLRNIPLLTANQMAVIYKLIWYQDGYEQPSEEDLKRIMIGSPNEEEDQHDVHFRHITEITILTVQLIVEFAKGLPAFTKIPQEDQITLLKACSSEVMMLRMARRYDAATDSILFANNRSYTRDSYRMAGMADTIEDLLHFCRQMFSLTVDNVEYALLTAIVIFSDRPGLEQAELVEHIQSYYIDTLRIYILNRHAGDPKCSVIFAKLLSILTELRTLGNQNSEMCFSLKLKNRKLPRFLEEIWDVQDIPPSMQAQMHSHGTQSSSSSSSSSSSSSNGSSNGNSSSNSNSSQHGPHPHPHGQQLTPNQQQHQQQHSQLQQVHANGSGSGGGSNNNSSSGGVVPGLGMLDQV
# Description: (§1) Briefly, yeast cells are cultured in 5 mL of YPD liquid medium overnight at 30° C. The cell culture was diluted 1:20 in YPD media and further grown until cell density reached an O.D of 0.6. at OD600. The cells were pelleted by centrifugation and washed with 10 mL of TE+0.1M lithium acetate. Cells are then resuspended in 10 mL TE+0.1M lithium acetate and incubated at 30° C. for 1 hour. Cells are collected and resuspended in 0.5 mL of TE+ 0.1M lithium acetate. Aliquots of cells (50 μL), were incubated for 15 minutes at 30° C. with 1–2 μg plasmid DNA in the presence of 5 μg of denatured salmon sperm DNA as DNA carrier. In the case of co-transformation, the indicated plasmids were added simultaneously. 50% polyethyleneglycol of molecular weight 4000, diluted in TE, was added to a final concentration of 35%. DMSO was added to the transformation solution simultaneously to a final concentration 3%. The samples were mixed well by vortexing and incubated for an additional 30 minutes at 30° C. The cell mixture is then heated for 15 minutes at 42° C. Cells were then collected and plated onto appropriate yeast selective media. Transformants of 4 plasmids are selected on the complete media without tryptophan, uracil, leucine and histidine.
# (§2) The yeast cells grown overnight in selective liquid media at 30° C. were diluted in prewarmed liquid selective media to 0.1 at OD600 (ODculture). 100 μl of the cell culture was spiked to each well of a.96-well microtiter plate. […] After 4 hours of incubation, 100 μl of 2× “Z” Sarcosine-ONPG buffer (120 mM Na2HPO4, 80 mM NaH2PO4, 20 mM KCl, 2 mM MgSO4, 100 mM beta-mercaptoethanol (Sigma), pH 7.0, 0.4% lauroyl sarcosine (Sigma), 4 mg/mL ONPG (Diagnostic Chemicals limited) was added to each well and the plate was further incubated at 37° C. The 2× “Z” Sarcosine-ONPG buffer is freshly prepared or stored at −20° C. prior to use. After incubation at 37° C. for 1 hour. The reaction was stopped by adding 100 μL of quenching solution 0.5 M Na2CO3 and OD405 (ODreaction) and beta-galactosidase activity was measured in a micro plate reader (Biotek) at a wave length of 405–450 nanometers. […]
# (§3) Using the transformation method described above, yeast were co-transformed with a reporter gene as shown in FIG. 2 and the expression vector encoding the full-length Aedes aegypti ecdysone receptor, Aa EcR (FIG. 7A) in the presence or absence of the Aa EcR heterodimer partner, Aa USP (a or b form, FIGS. 8A and 8B respectively). […] As the N-terminal portion of the AaEcR receptor is reported to play a role in ligand independent transactivation, an expression vector containing an N-terminal deletion in the Aa EcR was constructed (see FIG. 7B) and assessed in the β-galactosidase assays described above. […]
# [1] = target: T3, Aa ΔA/B EcR + Aa USPa + GRIP1 (Aedes aegypti, UniProt P49880); assay type: cell-based; settings: RH 5992 10 μM, 4 hours, DMSO control 0.272
# T3 construct: ubiquitin (human, 76 aa) (N, cleaved yes); expressed in transfected cells
# T3 sequence (P49880 with tags, fused parts or gaps): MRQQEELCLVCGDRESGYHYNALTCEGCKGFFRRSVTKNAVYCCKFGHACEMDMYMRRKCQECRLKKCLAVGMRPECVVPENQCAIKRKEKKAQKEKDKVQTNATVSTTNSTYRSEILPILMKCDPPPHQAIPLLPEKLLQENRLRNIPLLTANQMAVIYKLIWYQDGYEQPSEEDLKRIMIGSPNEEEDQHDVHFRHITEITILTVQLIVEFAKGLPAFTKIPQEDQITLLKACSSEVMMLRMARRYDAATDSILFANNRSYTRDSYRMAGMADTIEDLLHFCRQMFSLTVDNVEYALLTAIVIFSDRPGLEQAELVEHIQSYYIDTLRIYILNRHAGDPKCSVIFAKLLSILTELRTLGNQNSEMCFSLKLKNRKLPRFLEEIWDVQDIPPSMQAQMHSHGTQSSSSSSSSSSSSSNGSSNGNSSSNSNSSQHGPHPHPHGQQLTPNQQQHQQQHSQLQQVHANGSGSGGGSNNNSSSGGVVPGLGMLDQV
# Description: as §1, §2, §3
# Aa ΔA/B EcR + Aa USPb = target: T4, Aa ΔA/B EcR + Aa USPb (Aedes aegypti, UniProt P49880); assay type: cell-based; settings: RH 5992 10 μM, 4 hours, DMSO control 0.177
# T4 construct: ubiquitin (human, 76 aa) (N, cleaved yes); expressed in transfected cells
# T4 sequence (P49880 with tags, fused parts or gaps): as above
# Description: as §1, §2, §3
# [2] = target: T5, Aa ΔA/B EcR + AaUSPb + GRIP1 (Aedes aegypti, UniProt P49880); assay type: cell-based; settings: RH 5992 10 μM, 4 hours, DMSO control 0.240
# T5 construct: ubiquitin (human, 76 aa) (N, cleaved yes); expressed in transfected cells
# T5 sequence (P49880 with tags, fused parts or gaps): as above
# Description: as §1, §2, §3
smiles,measurement,setting,value
"CCc1ccc(C(=O)NN(C(=O)c2cc(C)cc(C)c2)C(C)(C)C)cc1 [RH 5992, tebufenozide]",β-galactosidase activity,Dm ΔN EcR + RXRγ + GRIP1,1.283
same,β-galactosidase activity,Aa EcR,2.750
same,β-galactosidase activity,[1],2.026
same,β-galactosidase activity,Aa ΔA/B EcR + Aa USPb,0.184
same,β-galactosidase activity,[2],2.074
